Experimental data taken from publication PMC9544318, “Advanced Pyrrolidine‐Carbamate Self‐Immolative Spacer with Tertiary Amine Handle Induces Superfast Cyclative Drug Release” (Chemmedchem, 2022).

Assays:
Type in all cases: physicochemical
[1] = Carbamate cleavage study of SI spacer-CPT modules (CPT release by HPLC); conditions: for half-life at 1 mM: CPT release by HPLC, read-out: carbamate half-life (t1/2) (converted)
Text: We undertook the structural optimization of the pyrrolidine‐carbamate SI spacer Sp2, aimed at decreasing the carbamate half‐life (t 1/2) for a faster hydroxy cargo release. The molecular structures of the synthesized SI spacers are reported in Figure 2 (all synthetic procedures are reported in the Supporting Information). Here, the Sp2 pyrrolidine ring was replaced by either a piperidine (in Sp4) or an isoxazolidine (in Sp5) cycle. In particular, Sp4 was designed to assess the impact of the cyclic amine ring size on the SI spacer degradation.[20] On the other hand, the use of an isoxazolidine ring in Sp5 aimed at evaluating the contribution of the “α‐effect” to the spacer reactivity.[21] While Sp4 was prepared starting from racemic 2‐piperidinecarbaldehyde, the synthesis of Sp5 was inspired by Bode's route to 5‐oxaproline.[22] Moreover, as we recently observed the inhibitory effects on the spacer cyclization given by a phosphate monoester group,[23] we devised the SI spacer modification with a basic handle. Since at physiological pH (approximately 7.4) the pyrrolidine is mostly present as protonated species, a second amine handle may force the pyrrolidine deprotonation, thus lowering its pK a value and increasing its nucleophilic character.[24] To this end, SI spacers Sp3 and Sp6/8 were endowed with a tertiary amine handle connected either at the carbamate N atom (in Sp3 and Sp7) or at the pyrrolidine ring (in Sp6 and Sp8). While the former spacers were rapidly obtained by reductive amination of Boc‐L‐prolinal, the latter were prepared by multistep synthesis, starting from oxygenated proline derivatives, such as 4‐oxo‐L‐proline and hydroxyproline. Firstly, the exocyclic secondary amine of SI spacers Sp3/8 was conjugated to the tertiary hydroxy group of the anticancer drug Camptothecin (CPT) via carbamate bond. As described recently,[19, 23] the final spacer‐drug modules Sp3/8‐CPT (Figure 2) were isolated as trifluoroacetate salts. These compounds were dissolved in a DMSO/phosphate buffer (pH 7.5) mixture and incubated at 37 °C, followed by aliquot collection at different time points and CPT release analysis by HPLC. The percentage of intact carbamate calculated from peak integrals was plotted versus time, and the spacer cyclization rates were estimated in terms of carbamate half‐life (t 1/2).
Carbamate Cleavage Studies
Experimental Procedure for Sp-CPT Modules
Stock solutions of lyophilized SI spacer-CPT modules (concentration: 10 mM in DMSO) were diluted 1:10 (final concentration: 1 mM) with 25 mM phosphate buffer (pH 7.4). Immediately after preparation, the mixtures were incubated at 37 °C. Aliquots were collected at different time points and diluted 1:4 (final concentration: 250 μ M) with a blocking buffer (8:2 H2O/CH3CN + 0.2% TFA).
The diluted aliquots were injected into an analytical HPLC-PDA system (see Materials and Methods), using the following parameters: […]
Gradient From 10% B to 50% B in 26 min.
Areas under the curve (AUC) of the detected peaks were measured using software associated to the HPLC systems. The rate of free OH release from the starting carbamate were obtained by calculating the relative ratios of AUC values corresponding to the amine -bearing prodrug and the free payload. Data were plotted versus time and half-lives (t1/2) were calculated by non -linear fitting (exponential, one-phase decay) using GraphPad Prism software .
(1 picture or pasted object on this page, not shown here)

[2] = CPT release under acidic conditions (acetate buffer, pH 5) mimicking the lysosomal compartment; conditions: for carbamate stability under acidic conditions: compared with pH 7.5
Method: [26] The release of free CPT was also studied upon Sp2-CPT and Sp3-CPT incubation under more acidic conditions (acetate buffer, pH 5), mimicking the lysosomal compartment.

[3] = Solubility observed in aqueous buffer/DMSO mixture of the release study
Method: [25] The stability of carbamate Sp4-CPT may be ascribed to a suboptimal conformation of the piperidine spacer compared to the native pyrrolidine. […] The stability of Sp5-CPT was also analysed in a phosphate buffer solution at pH 7.5, with DMSO content increased to 20 % DMSO.

[4] = DMSO/phosphate buffer (pH 7.5), 37 °C

Row | SMILES | half-life at 1 mM [1, 4] [h] | carbamate stability under acidic conditions [2] | also measured
1 | CC[C@@]1(OC(=O)N(C)C[C@@H]2CCCN2)C(=O)OCc2c1cc1n(c2=O)Cc2cc3ccccc3nc2-1 [Sp2-CPT, reference compound] | 3.6 | much more stable | –
2 | CC[C@@]1(OC(=O)N(CCN(C)C)C[C@@H]2CCCN2)C(=O)OCc2c1cc1n(c2=O)Cc2cc3ccccc3nc2-1 [Sp3-CPT] | 0.9 | much more stable | half-life compared with reference Sp2-CPT [1, 4]: four times shorter; drug release activity under acidic conditions ([2]; compared with Sp2 reference): consistently higher drug release activity than the Sp2 reference
3 | CC[C@@]1(OC(=O)N(C)C[C@@H]2CCON2)C(=O)OCc2c1cc1n(c2=O)Cc2cc3ccccc3nc2-1 [Sp5-CPT] | – | – | cyclative carbamate cleavage (CPT release) [1, 4]: complete inhibition of the cyclative carbamate cleavage; CPT release ([1]; phosphate buffer pH 7.5, 20 % DMSO): no CPT release was observed; solubility ([3]; 9 : 1 aqueous buffer/DMSO mixture, pH 7.5): partially insoluble; solubility ([3]; phosphate buffer pH 7.5, DMSO content increased to 20 %): perfectly soluble
4 | CC[C@@]1(OC(=O)N(C)C[C@@H]2C[C@H](N(C)C)CN2)C(=O)OCc2c1cc1n(c2=O)Cc2cc3ccccc3nc2-1 [Sp6-CPT] | 5.5 | – | –
5 | CC[C@@]1(OC(=O)N(CCCN(C)C)C[C@@H]2CCCN2)C(=O)OCc2c1cc1n(c2=O)Cc2cc3ccccc3nc2-1 [Sp7-CPT] | 3.3 | – | –
6 | CC[C@@]1(OC(=O)N(C)C[C@@H]2C[C@@H](OCCN(C)C)CN2)C(=O)OCc2c1cc1n(c2=O)Cc2cc3ccccc3nc2-1 [Sp8-CPT] | 3.2 | – | –
